Reference: ChEMBL document CHEMBL3046897, “Synthesis of 3-{4-[4-dimethylamino-6-(4-methyl-2-oxo-2H-chromen-7-yloxy)-[1,3,5]triazin-2-ylamino]-phenyl}-2-phenyl-5-(4-pyridin-2-yl-piperazin-1-ylmethyl)-thiazolidin-4-one and their biological evaluation” (2012)
In brackets after ≈: the same amount, converted by molar mass. Activity calls are given as the source filed them. No cut-off for these calls is given here.

Tests used:
Shigella flexneri [1] = assay: Antibacterial activity against Shigella flexneri after 24 hr by agar streak dilution method; format: functional
Aspergillus niger [2] = assay: Antifungal activity against Aspergillus niger after 48 hr by agar streak dilution method; format: functional
Aspergillus fumigatus [3] = assay: Antifungal activity against Aspergillus fumigatus after 48 hr by agar streak dilution method; format: functional
Bacillus subtilis [4] = assay: Antibacterial activity against Bacillus subtilis at 100 ug/disk after 24 hr by paper disk diffusion method; format: functional; conditions: read-out: IZ
Proteus vulgaris [5] = assay: Antibacterial activity against Proteus vulgaris after 24 hr by agar streak dilution method; format: functional
Aspergillus niger [6] = assay: Antifungal activity against Aspergillus niger at 100 ug/disk after 48 hr by paper disk diffusion method; format: functional; conditions: read-out: IZ
Klebsiella pneumoniae [7] = assay: Antibacterial activity against Klebsiella pneumoniae at 100 ug/disk after 24 hr by paper disk diffusion method; format: functional; conditions: read-out: IZ
Pseudomonas aeruginosa [8] = assay: Antibacterial activity against Pseudomonas aeruginosa after 24 hr by agar streak dilution method; format: functional
Staphylococcus aureus [9] = assay: Antibacterial activity against Staphylococcus aureus at 100 ug/disc after 24 hr by paper disk diffusion method; format: functional; conditions: read-out: IZ
Aspergillus clavatus [10] = assay: Antifungal activity against Aspergillus clavatus after 48 hr by agar streak dilution method; format: functional
Escherichia coli [11] = assay: Antibacterial activity against Escherichia coli after 24 hr by agar streak dilution method; format: functional
Proteus vulgaris [12] = assay: Antibacterial activity against Proteus vulgaris at 100 ug/disk after 24 hr by paper disk diffusion method; format: functional; conditions: read-out: IZ
Salmonella typhi [13] = assay: Antibacterial activity against Salmonella enterica subsp. enterica serovar Typhi at 100 ug/disk after 24 hr by paper disk diffusion method; format: functional; conditions: read-out: IZ
Salmonella typhi [14] = assay: Antibacterial activity against Salmonella enterica subsp. enterica serovar Typhi after 24 hr by agar streak dilution method; format: functional
Shigella flexneri [15] = assay: Antibacterial activity against Shigella flexneri at 100 ug/disc after 24 hr by paper disk diffusion method; format: functional; conditions: read-out: IZ
Pseudomonas aeruginosa [16] = assay: Antibacterial activity against Pseudomonas aeruginosa at 100 ug/disk after 24 hr by paper disk diffusion method; format: functional; conditions: read-out: IZ
Klebsiella pneumoniae [17] = assay: Antibacterial activity against Klebsiella pneumoniae after 24 hr by agar streak dilution method; format: functional
Bacillus subtilis [18] = assay: Antibacterial activity against Bacillus subtilis after 24 hr by agar streak dilution method; format: functional
Aspergillus fumigatus [19] = assay: Antifungal activity against Aspergillus fumigatus at 100 ug/disc after 48 hr by paper disk diffusion method; format: functional; conditions: read-out: IZ
Candida albicans [20] = assay: Antifungal activity against Candida albicans at 100 ug/ml after 48 hr by agar streak dilution method; format: functional, organism-based
Escherichia coli [21] = assay: Antibacterial activity against Escherichia coli at 100 ug/disk after 24 hr by paper disk diffusion method; format: functional; conditions: read-out: IZ
Aspergillus clavatus [22] = assay: Antifungal activity against Aspergillus clavatus at 100 ug/disc after 48 hr by paper disk diffusion method; format: functional; conditions: read-out: IZ
Staphylococcus aureus [23] = assay: Antibacterial activity against Staphylococcus aureus after 24 hr by agar streak dilution method; format: functional
Aspergillus fumigatus [24] = assay: Antifungal activity against Aspergillus fumigatus at 100 ug/ml after 48 hr by agar streak dilution method; format: functional, organism-based
Candida albicans [25] = assay: Antifungal activity against Candida albicans at 100 ug/disk after 48 hr by paper disk diffusion method; format: functional; conditions: read-out: IZ
Candida albicans [26] = assay: Antifungal activity against Candida albicans after 48 hr by agar streak dilution method; format: functional

With `Cc1cc(=O)oc2cc(Oc3nc(Nc4ccc(N5C(=O)CSC5c5ccccc5C(=O)O)cc4)nc(N(C)C)n3)ccc12` (stereo not drawn) the MIC (Shigella flexneri [1]) was 100 µg/mL (≈ 164 µM), the MIC (Aspergillus niger [2]) was 100 µg/mL (≈ 164 µM) and the MIC (Aspergillus fumigatus [3]) was 100 µg/mL (≈ 164 µM). It also gave a zone of inhibition at 100 µg/disc (Bacillus subtilis [4]) of 14 mm, an MIC (Proteus vulgaris [5]) of 100 µg/mL (≈ 164 µM) and a zone of inhibition at 100 µg/disc (Aspergillus niger [6]) of 12 mm. For the same compound, the zone of inhibition at 100 µg/disc (Klebsiella pneumoniae [7]) was 12 mm, the MIC (Pseudomonas aeruginosa [8]) was 100 µg/mL (≈ 164 µM) and the zone of inhibition at 100 µg/disc (Staphylococcus aureus [9]) was 16 mm. It also gave an MIC (Aspergillus clavatus [10]) of 100 µg/mL (≈ 164 µM), an MIC (Escherichia coli [11]) of 100 µg/mL (≈ 164 µM) and a zone of inhibition at 100 µg/disc (Proteus vulgaris [12]) of 11 mm. The zone of inhibition at 100 µg/disc (Salmonella typhi [13]) was < 10 mm, the MIC (Salmonella typhi [14]) was 100 µg/mL (≈ 164 µM) and the zone of inhibition at 100 µg/disc (Shigella flexneri [15]) was 14 mm. The zone of inhibition at 100 µg/disc (Pseudomonas aeruginosa [16]) was 14 mm, the MIC (Klebsiella pneumoniae [17]) was 100 µg/mL (≈ 164 µM) and the MIC (Bacillus subtilis [18]) was 100 µg/mL (≈ 164 µM). For the same compound, the zone of inhibition at 100 µg/disc (Aspergillus fumigatus [19]) was 10 mm, the Activity (Candida albicans [20]) was “inactive” and the zone of inhibition at 100 µg/disc (Escherichia coli [21]) was < 10 mm. For the same compound, the zone of inhibition at 100 µg/disc (Aspergillus clavatus [22]) was 13 mm and the MIC (Staphylococcus aureus [23]) was 100 µg/mL (≈ 164 µM).

`Cc1cc(=O)oc2cc(Oc3nc(Nc4ccc(N5C(=O)CSC5c5ccccc5)cc4)nc(N(C)C)n3)ccc12` (stereo not drawn) gave an MIC (Shigella flexneri [1]) of 100 µg/mL (≈ 176 µM), an MIC (Aspergillus niger [2]) of 100 µg/mL (≈ 176 µM) and a zone of inhibition at 100 µg/disc (Bacillus subtilis [4]) of 13 mm. The MIC (Proteus vulgaris [5]) was 100 µg/mL (≈ 176 µM), the zone of inhibition at 100 µg/disc (Aspergillus niger [6]) was 11 mm and the Activity (Aspergillus fumigatus [24]) was “inactive”. The zone of inhibition at 100 µg/disc (Klebsiella pneumoniae [7]) was < 10 mm, the MIC (Pseudomonas aeruginosa [8]) was 100 µg/mL (≈ 176 µM) and the zone of inhibition at 100 µg/disc (Staphylococcus aureus [9]) was 12 mm. The MIC (Aspergillus clavatus [10]) was 100 µg/mL (≈ 176 µM), the MIC (Escherichia coli [11]) was 100 µg/mL (≈ 176 µM) and the zone of inhibition at 100 µg/disc (Proteus vulgaris [12]) was 10 mm. For the same compound, the zone of inhibition at 100 µg/disc (Salmonella typhi [13]) was 11 mm, the MIC (Salmonella typhi [14]) was 100 µg/mL (≈ 176 µM) and the zone of inhibition at 100 µg/disc (Shigella flexneri [15]) was 12 mm. For the same compound, the zone of inhibition at 100 µg/disc (Pseudomonas aeruginosa [16]) was 15 mm, the zone of inhibition at 100 µg/disc (Candida albicans [25]) was 10 mm and the MIC (Klebsiella pneumoniae [17]) was 100 µg/mL (≈ 176 µM). The MIC (Bacillus subtilis [18]) was 100 µg/mL (≈ 176 µM), the MIC (Candida albicans [26]) was 100 µg/mL (≈ 176 µM) and the zone of inhibition at 100 µg/disc (Escherichia coli [21]) was 14 mm. For the same compound, the zone of inhibition at 100 µg/disc (Aspergillus clavatus [22]) was 13 mm and the MIC (Staphylococcus aureus [23]) was 100 µg/mL (≈ 176 µM).

For `Cc1cc(=O)oc2cc(Oc3nc(Nc4ccc(N5C(=O)C(CN6CCN(c7ccccn7)CC6)SC5c5ccc(O)cc5)cc4)nc(N(C)C)n3)ccc12` (stereo not drawn), the MIC (Shigella flexneri [1]) was 25 µg/mL (≈ 33 µM), the MIC (Aspergillus niger [2]) was 6.25 µg/mL (≈ 8.25 µM) and the MIC (Aspergillus fumigatus [3]) was 6.25 µg/mL (≈ 8.25 µM). The zone of inhibition at 100 µg/disc (Bacillus subtilis [4]) was 25 mm, the MIC (Proteus vulgaris [5]) was 12.5 µg/mL (≈ 16.5 µM) and the zone of inhibition at 100 µg/disc (Aspergillus niger [6]) was 27 mm. The zone of inhibition at 100 µg/disc (Klebsiella pneumoniae [7]) was 19 mm, the MIC (Pseudomonas aeruginosa [8]) was 12.5 µg/mL (≈ 16.5 µM) and the zone of inhibition at 100 µg/disc (Staphylococcus aureus [9]) was 27 mm. It also gave an MIC (Aspergillus clavatus [10]) of 25 µg/mL (≈ 33 µM), an MIC (Escherichia coli [11]) of 6.25 µg/mL (≈ 8.25 µM) and a zone of inhibition at 100 µg/disc (Proteus vulgaris [12]) of 25 mm. It also gave a zone of inhibition at 100 µg/disc (Salmonella typhi [13]) of 27 mm, an MIC (Salmonella typhi [14]) of 6.25 µg/mL (≈ 8.25 µM) and a zone of inhibition at 100 µg/disc (Shigella flexneri [15]) of 22 mm. For the same compound, the zone of inhibition at 100 µg/disc (Pseudomonas aeruginosa [16]) was 23 mm, the zone of inhibition at 100 µg/disc (Candida albicans [25]) was 23 mm and the MIC (Klebsiella pneumoniae [17]) was 25 µg/mL (≈ 33 µM). It also gave an MIC (Bacillus subtilis [18]) of 6.25 µg/mL (≈ 8.25 µM), an MIC (Candida albicans [26]) of 12.5 µg/mL (≈ 16.5 µM) and a zone of inhibition at 100 µg/disc (Aspergillus fumigatus [19]) of 25 mm. For the same compound, the zone of inhibition at 100 µg/disc (Escherichia coli [21]) was 30 mm, the zone of inhibition at 100 µg/disc (Aspergillus clavatus [22]) was 21 mm and the MIC (Staphylococcus aureus [23]) was 6.25 µg/mL (≈ 8.25 µM).

`Cc1cc(=O)oc2cc(Oc3nc(Nc4ccc(N5C(=O)C(CN6CCN(c7ccccn7)CC6)SC5c5ccc(Cl)c(Cl)c5)cc4)nc(N(C)C)n3)ccc12` (stereo not drawn) was tested, and the MIC (Shigella flexneri [1]) was 50 µg/mL (≈ 61.7 µM), the MIC (Aspergillus niger [2]) was 100 µg/mL (≈ 123 µM) and the MIC (Aspergillus fumigatus [3]) was 50 µg/mL (≈ 61.7 µM). It also gave a zone of inhibition at 100 µg/disc (Bacillus subtilis [4]) of 21 mm, an MIC (Proteus vulgaris [5]) of 25 µg/mL (≈ 30.8 µM) and a zone of inhibition at 100 µg/disc (Aspergillus niger [6]) of 16 mm. The zone of inhibition at 100 µg/disc (Klebsiella pneumoniae [7]) was 19 mm, the MIC (Pseudomonas aeruginosa [8]) was 25 µg/mL (≈ 30.8 µM) and the zone of inhibition at 100 µg/disc (Staphylococcus aureus [9]) was 19 mm. For the same compound, the MIC (Aspergillus clavatus [10]) was 50 µg/mL (≈ 61.7 µM), the MIC (Escherichia coli [11]) was 50 µg/mL (≈ 61.7 µM) and the zone of inhibition at 100 µg/disc (Proteus vulgaris [12]) was 20 mm. The zone of inhibition at 100 µg/disc (Salmonella typhi [13]) was 20 mm, the MIC (Salmonella typhi [14]) was 50 µg/mL (≈ 61.7 µM) and the zone of inhibition at 100 µg/disc (Shigella flexneri [15]) was 19 mm. It also gave a zone of inhibition at 100 µg/disc (Pseudomonas aeruginosa [16]) of 21 mm, a zone of inhibition at 100 µg/disc (Candida albicans [25]) of 17 mm and an MIC (Klebsiella pneumoniae [17]) of 50 µg/mL (≈ 61.7 µM). It also gave an MIC (Bacillus subtilis [18]) of 25 µg/mL (≈ 30.8 µM), an MIC (Candida albicans [26]) of 100 µg/mL (≈ 123 µM) and a zone of inhibition at 100 µg/disc (Aspergillus fumigatus [19]) of 18 mm. For the same compound, the zone of inhibition at 100 µg/disc (Escherichia coli [21]) was 18 mm, the zone of inhibition at 100 µg/disc (Aspergillus clavatus [22]) was 20 mm and the MIC (Staphylococcus aureus [23]) was 50 µg/mL (≈ 61.7 µM).

`Cc1cc(=O)oc2cc(Oc3nc(Nc4ccc(/N=C/c5ccc(Cl)c(Cl)c5)cc4)nc(N(C)C)n3)ccc12` showed an MIC (Shigella flexneri [1]) of 100 µg/mL (≈ 178 µM), an MIC (Aspergillus niger [2]) of 100 µg/mL (≈ 178 µM) and an MIC (Aspergillus fumigatus [3]) of 100 µg/mL (≈ 178 µM). The zone of inhibition at 100 µg/disc (Bacillus subtilis [4]) was 15 mm, the MIC (Proteus vulgaris [5]) was 100 µg/mL (≈ 178 µM) and the zone of inhibition at 100 µg/disc (Aspergillus niger [6]) was < 10 mm. The zone of inhibition at 100 µg/disc (Klebsiella pneumoniae [7]) was 12 mm, the MIC (Pseudomonas aeruginosa [8]) was 50 µg/mL (≈ 89.1 µM) and the zone of inhibition at 100 µg/disc (Staphylococcus aureus [9]) was 13 mm. It also gave an MIC (Aspergillus clavatus [10]) of 100 µg/mL (≈ 178 µM), an MIC (Escherichia coli [11]) of 100 µg/mL (≈ 178 µM) and a zone of inhibition at 100 µg/disc (Proteus vulgaris [12]) of 12 mm. The zone of inhibition at 100 µg/disc (Salmonella typhi [13]) was 14 mm, the MIC (Salmonella typhi [14]) was 100 µg/mL (≈ 178 µM) and the zone of inhibition at 100 µg/disc (Shigella flexneri [15]) was 15 mm. The zone of inhibition at 100 µg/disc (Pseudomonas aeruginosa [16]) was 16 mm, the zone of inhibition at 100 µg/disc (Candida albicans [25]) was 10 mm and the MIC (Klebsiella pneumoniae [17]) was 100 µg/mL (≈ 178 µM). For the same compound, the MIC (Bacillus subtilis [18]) was 100 µg/mL (≈ 178 µM), the MIC (Candida albicans [26]) was 100 µg/mL (≈ 178 µM) and the zone of inhibition at 100 µg/disc (Aspergillus fumigatus [19]) was 12 mm. The zone of inhibition at 100 µg/disc (Escherichia coli [21]) was 11 mm, the zone of inhibition at 100 µg/disc (Aspergillus clavatus [22]) was 15 mm and the MIC (Staphylococcus aureus [23]) was 100 µg/mL (≈ 178 µM).
